# Measured values as given in the supplement of paper PMC10307832.
# How the values were obtained:
# Assay in all cases: relative viability (nuclei count vs DMSO), 5 days (fraction); higher = more cells survive
# HCC-827 = test system: HCC-827
# How it was run: (§1)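 Lung cancer cell lines, seeded in 1536-well plates, were treated the following day by pin tool with a single drug or with five library-drug doses (not always all listed) in √10 steps on top of a fixed anchor-drug dose. Cells were fixed and nuclei stained in one step after 5 days, and nuclei were counted. Relative viability is the nuclei count for treated wells divided by that for vehicle wells, reported as medians of duplicate plates.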
# EKVX = test system: EKVX
# How it was run: as §1
# NCI-H2405 = test system: NCI-H2405
# How it was run: as §1
# NCI-H1355 = test system: NCI-H1355
# How it was run: as §1
# NCI-H1792 = test system: NCI-H1792
# How it was run: as §1
# NCI-H838 = test system: NCI-H838
# How it was run: as §1
# LC-2-ad = test system: LC-2-ad
# How it was run: as §1
# HARA = test system: HARA
# How it was run: as §1
# NCI-H661 = test system: NCI-H661
# How it was run: as §1
# SW 1573 = test system: SW 1573
# How it was run: as §1
# COR-L23 = test system: COR-L23
# How it was run: as §1
# UMC-11 = test system: UMC-11
# How it was run: as §1
# EMC-BAC-2 = test system: EMC-BAC-2
# How it was run: as §1
# HCC-15 = test system: HCC-15
# How it was run: as §1
# NCI-H1755 = test system: NCI-H1755
# How it was run: as §1
# NCI-H522 = test system: NCI-H522
# How it was run: as §1
# NCI-H23 = test system: NCI-H23
# How it was run: as §1
# H3255 = test system: H3255
# How it was run: as §1
# NCI-H2126 = test system: NCI-H2126
# How it was run: as §1
# NCI-H520 = test system: NCI-H520
# How it was run: as §1
# NCI-H1915 = test system: NCI-H1915
# How it was run: as §1
# SW 900 = test system: SW 900
# How it was run: as §1
# RERF-LC-KJ = test system: RERF-LC-KJ
# How it was run: as §1
# LCLC-97TM1 = test system: LCLC-97TM1
# How it was run: as §1
# NCI-H3122 = test system: NCI-H3122
# How it was run: as §1
smiles,measurement,setting,value
Nc1cccc2c1CN(C1CCC(=O)NC1=O)C2=O (stereo not given) [Lenalidomide] + Nc1ncn([C@H]2C[C@H](O)[C@@H](CO)O2)c(=O)n1 [Decitabine] (partner 2 µM),relative viability,HCC-827; first compound 0.253 µM,0.336
same,relative viability,HCC-827; first compound 0.8 µM,0.284
same,relative viability,HCC-827; first compound 2.53 µM,0.348
same,relative viability,HCC-827; first compound 8 µM,0.35
same,relative viability,EKVX; first compound 0.253 µM,0.326
same,relative viability,EKVX; first compound 0.8 µM,0.4
same,relative viability,EKVX; first compound 2.53 µM,0.336
same,relative viability,EKVX; first compound 8 µM,0.331
same,relative viability,NCI-H2405; first compound 0.253 µM,0.719
same,relative viability,NCI-H2405; first compound 0.8 µM,0.817
same,relative viability,NCI-H2405; first compound 2.53 µM,0.782
same,relative viability,NCI-H2405; first compound 8 µM,0.632
same,relative viability,NCI-H1355; first compound 0.253 µM,0.36
same,relative viability,NCI-H1355; first compound 0.8 µM,0.367
same,relative viability,NCI-H1355; first compound 2.53 µM,0.376
same,relative viability,NCI-H1355; first compound 8 µM,0.341
same,relative viability,NCI-H1792; first compound 0.253 µM,0.568
same,relative viability,NCI-H1792; first compound 0.8 µM,0.454
same,relative viability,NCI-H1792; first compound 2.53 µM,0.541
same,relative viability,NCI-H1792; first compound 8 µM,0.384
same,relative viability,NCI-H838; first compound 0.253 µM,0.483
same,relative viability,NCI-H838; first compound 0.8 µM,0.404
same,relative viability,NCI-H838; first compound 2.53 µM,0.527
same,relative viability,NCI-H838; first compound 8 µM,0.491
same,relative viability,LC-2-ad; first compound 0.253 µM,0.685
same,relative viability,LC-2-ad; first compound 0.8 µM,0.81
same,relative viability,LC-2-ad; first compound 2.53 µM,0.744
same,relative viability,LC-2-ad; first compound 8 µM,0.79
same,relative viability,HARA; first compound 0.253 µM,0.597
same,relative viability,HARA; first compound 2.53 µM,0.538
same,relative viability,HARA; first compound 8 µM,0.561
same,relative viability,NCI-H661; first compound 0.253 µM,0.568
same,relative viability,NCI-H661; first compound 0.8 µM,0.548
same,relative viability,NCI-H661; first compound 2.53 µM,0.621
same,relative viability,NCI-H661; first compound 8 µM,0.568
same,relative viability,SW 1573; first compound 0.253 µM,0.536
same,relative viability,SW 1573; first compound 0.8 µM,0.625
same,relative viability,SW 1573; first compound 2.53 µM,0.591
same,relative viability,SW 1573; first compound 8 µM,0.542
same,relative viability,COR-L23; first compound 0.253 µM,0.416
same,relative viability,COR-L23; first compound 0.8 µM,0.395
same,relative viability,COR-L23; first compound 2.53 µM,0.491
same,relative viability,COR-L23; first compound 8 µM,0.409
same,relative viability,UMC-11; first compound 0.253 µM,0.46
same,relative viability,UMC-11; first compound 0.8 µM,0.688
same,relative viability,UMC-11; first compound 2.53 µM,0.725
same,relative viability,UMC-11; first compound 8 µM,0.621
same,relative viability,EMC-BAC-2; first compound 0.253 µM,0.998
same,relative viability,EMC-BAC-2; first compound 0.8 µM,0.929
same,relative viability,EMC-BAC-2; first compound 2.53 µM,0.995
same,relative viability,EMC-BAC-2; first compound 8 µM,0.801
same,relative viability,HCC-15; first compound 0.253 µM,0.766
same,relative viability,HCC-15; first compound 2.53 µM,0.763
same,relative viability,HCC-15; first compound 8 µM,0.594
same,relative viability,NCI-H1755; first compound 0.253 µM,0.763
same,relative viability,NCI-H1755; first compound 0.8 µM,0.687
same,relative viability,NCI-H1755; first compound 2.53 µM,0.712
same,relative viability,NCI-H1755; first compound 8 µM,0.688
same,relative viability,NCI-H522; first compound 0.253 µM,0.759
same,relative viability,NCI-H522; first compound 0.8 µM,0.76
same,relative viability,NCI-H522; first compound 2.53 µM,0.694
same,relative viability,NCI-H522; first compound 8 µM,0.626
same,relative viability,NCI-H23; first compound 0.253 µM,0.302
same,relative viability,NCI-H23; first compound 2.53 µM,0.315
same,relative viability,NCI-H23; first compound 8 µM,0.305
same,relative viability,H3255; first compound 0.253 µM,0.592
same,relative viability,H3255; first compound 0.8 µM,0.556
same,relative viability,H3255; first compound 2.53 µM,0.563
same,relative viability,H3255; first compound 8 µM,0.421
same,relative viability,NCI-H2126; first compound 0.253 µM,0.645
same,relative viability,NCI-H2126; first compound 0.8 µM,0.611
same,relative viability,NCI-H2126; first compound 2.53 µM,0.578
same,relative viability,NCI-H2126; first compound 8 µM,0.516
same,relative viability,NCI-H520; first compound 0.253 µM,0.539
same,relative viability,NCI-H520; first compound 0.8 µM,0.548
same,relative viability,NCI-H520; first compound 2.53 µM,0.507
same,relative viability,NCI-H520; first compound 8 µM,0.438
same,relative viability,NCI-H1915; first compound 0.253 µM,0.247
same,relative viability,NCI-H1915; first compound 0.8 µM,0.253
same,relative viability,NCI-H1915; first compound 2.53 µM,0.274
same,relative viability,NCI-H1915; first compound 8 µM,0.241
same,relative viability,SW 900; first compound 2.53 µM,0.51
same,relative viability,SW 900; first compound 8 µM,0.532
same,relative viability,RERF-LC-KJ; first compound 0.253 µM,0.717
same,relative viability,RERF-LC-KJ; first compound 0.8 µM,0.655
same,relative viability,RERF-LC-KJ; first compound 2.53 µM,0.65
same,relative viability,RERF-LC-KJ; first compound 8 µM,0.774
same,relative viability,LCLC-97TM1; first compound 0.253 µM,0.226
same,relative viability,LCLC-97TM1; first compound 0.8 µM,0.236
same,relative viability,LCLC-97TM1; first compound 2.53 µM,0.256
same,relative viability,LCLC-97TM1; first compound 8 µM,0.221
same,relative viability,NCI-H3122; first compound 0.253 µM,0.375
same,relative viability,NCI-H3122; first compound 0.8 µM,0.536
same,relative viability,NCI-H3122; first compound 2.53 µM,0.381
same,relative viability,NCI-H3122; first compound 8 µM,0.386
